In the test the test system is cerebral vessels. The settings on record: person after first stroke. How it is done: A person with a history of hypertension experiences a first stroke in the left middle cerebral artery resulting in deficits in the right hand, leg, and some deficits in motor speech. These are the symptoms upon presentation in the neurological clinic. Transcranial Doppler analysis of all cerebral vessels is performed in addition to analyzing the common carotid artery and the internal carotid artery.
The physician considers prescription of Plavix together with a calcium channel blocker. Transcranial Doppler analysis was performed at monthly intervals. […] The physician subsequently administers a higher dose. Again, transcranial Doppler analysis is performed on all cerebral vessels.

Where [1] appears, read: higher dose, transcranial Doppler on all cerebral vessels.

With `COC(=O)[C@H](c1ccccc1Cl)N1CCc2sccc2C1` [Plavix], the “effect on the cerebral vessels (changes in the individual cerebral vessels)” value (Plavix +/− calcium channel blocker, initial dose, transcranial Doppler at monthly intervals) is “no effect”. Under setting [1], the auto-regulation curve entry was “left-shifts toward normal” and the pulsatility index result is given as “decreases”.

The values are drawn from patent US6955648B2, “Precision brain blood flow assessment remotely in real time using nanotechnology ultrasound” (New Health Sciences, Inc., priority 2000, dated 2005).
